“Also recorded” adds a separate entry of the source. Where two headings read alike, the source gives them in different places.
Assays:
recombinant human ATase = molecular target: T1, recombinant human ATase (Homo sapiens, UniProt P16455); assay: In vitro ATase inactivation assay (incubation with inactivators and ATase assay); assay type: biochemical; conditions: for ATase inactivation in vitro, result in words: recombinant human ATase, standard conditions
T1 construct: made in house
T1 sequence (P16455 1-207): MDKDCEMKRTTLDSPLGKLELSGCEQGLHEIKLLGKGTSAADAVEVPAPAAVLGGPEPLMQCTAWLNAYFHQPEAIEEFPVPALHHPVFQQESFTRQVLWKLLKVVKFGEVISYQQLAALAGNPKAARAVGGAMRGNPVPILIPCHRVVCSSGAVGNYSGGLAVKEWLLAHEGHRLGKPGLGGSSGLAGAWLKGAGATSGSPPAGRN
Description: The cDNA cloning and overexpression of the human ATase has been reported previously^23. Purification of the recombinant proteins was achieved either by affinity chromatography through a DNA-cellulose column as described by Wilkinson et al.,^25, 26 or by DEAE-cellulose ion-exchange chromatography. For the latter, the ATase protein was partially purified by ammonium sulphate precipitation (30-60%) and dialysed against 10 mM Tris-HCl pH 7.5, 1 mM DTT, 2 mM EDTA, 10% glycerol, before loading on a DEAE-cellulose column. The ATase was then eluted with a 0-0.1 M NaCl gradient.
Compounds to be tested were dissolved in DMSO to a final concentration of 10 mM and diluted just before use in buffer I containing 1 mg/ml bovine serum albumin (IBSA). Recombinant ATase was diluted in IBSA and titrated in order that the reaction be conducted under ATase, and not substrate, limiting conditions. […] Following acid hydrolysis of the DNA as previously described^21 the [^3 H]-methylated protein was recovered and quantitated by liquid scintillation counting. Samples were typically assayed in duplicate and experiments repeated several times. I50 is the concentration of inactivator required to produce a 50% reduction in ATase activity.

[1] = test system: human bone marrow granulocyte macrophage colony forming cells; assay: Sensitization of bone marrow cells to temozolomide (GM-CFC assay); assay type: cell-based
Source text: For the granulocyte/macrophage colony-forming cell (GM-CFC) assay primary human bone marrow samples were obtained from patients undergoing cardiothoracic surgery. […] The colonies represented precursor cells of the granulocyte/macrophage lineage (huGM-CFC). Survival was expressed as a % of the number of colonies at zero dose temozolomide.

Raji cells [2] = assay: Sensitization of Raji cells to temozolomide (XTT assay); assay type: cell-based, human; conditions: 0.1-5.0 μM inactivator (FIGS. 3, 4)
Description: (§1) Following a 2 hour incubation at 37° C., medium containing either increasing doses of BCNU, temozolomide or equivalent vehicle was added and the cells allowed to grow for 6 days. At this time XTT solution was added and the cells incubated for a further 4 hours at 37° C. The resulting red/orange formazan reaction product was quantified by measuring absorption at 450 nm on a microtitre platereader.

[3] = Toxicity of inactivators in combination with BCNU in DBA2 mice; assay type: in vivo, mouse; conditions: mouse, in vivo, ip, 60 mg/kg, single i.p. dose, read-out: % SURVIVAL AFTER 14 DAYS
Source text: All agents were given as a single i.p. dose

nude mice = assay: Xenograft study: survival of nude mice given inactivator plus BCNU; conditions: in combination with BCNU (FIGS. 9-13)
Source text: BALB-C derived athymic male mice (nu/nu athymic) weighing between 25-35 g were obtained from the in-house breeding colony of the Paterson Institute for Cancer Research, Christie Hospital NHS Trust, Wilmslow Road, Manchester M20 9BX, England (ASU mice). The animals were housed in a sterile environment until required for experiments. In one experiment mice were obtained from Harlan-Olac, Harlan UK Limited, Shaw's Farm, Blackthorn, Bicester, Oxon. OX6 OPT, England (OLAC mice).

Raji cells [4] = assay: Sensitization of Raji cells to BCNU (XTT assay); assay type: cell-based, human; conditions: 1.0 μM inactivator (FIG. 2)
Description: as §1

[5] = molecular target: T2, ATase in human melanoma xenografts (Homo sapiens, UniProt P16455); assay: ATase activity in human melanoma (A375) xenografts grown in nude mice after inactivator; assay type: in vivo; conditions: single i.p. dose 30 or 60 mg/kg (FIG. 17)
T2 construct: A375M cells are human melanoma cells from which the xenografts described below were established; endogenous in cells; host or cells: A375M xenograft grown in nude mice
T2 sequence (P16455 1-207): T1 sequence (P16455 1-207)
Description: Cells (10^6) in 100 μl of PBS were injected subcutaneously into the right-hand flank of 8-10 week old nu/nu athymic mice. These cells were allowed to develop into a tumour for 3-4 weeks for passaging into experimental animals. Tumour blocks measuring 2 mm×2 mm×2 mm were implanted subcutaneously on the right hand flank. These animals were ready for use in inactivator experiments in 7-10 days.
ATase substrate DNA was prepared by incubation of purified calf thymes DNA with N-[^3 H]-methyl-N-nitrosuourea (18.7 Ci/mmole, Amersham International). Cell or tissue extracts (see 4.4) were incubated with [^3 H]-methylated-DNA substrate (100 μl containing 6.7 μg of DNA and 100 fmol of O^6 -[^3 H]methylguanine) at 37° C. for 60 mins. Following acid hydrolysis of the DNA as precviously described^21the [^3 H]-methylated protein was recovered and quantitated by liquid scintillation counting.
Mice were treated with the inactivator as a suspension in corn oil by intraperitoneal injection (i.p.) or by oral gavage (p.o.) 60 mins prior to temozolomide (100 mg/kg in 20% DMSO in phosphate-buffered saline) which was always given by intraperitoneal injection: this schedule was repeated on days 1 to 5 inclusive. Controls received vehicle alone, inactivator alone or temozolomide alone.

[6] = Table 9, pure recombinant ATase in vitro, read-out: I50 (μm)

Compound: Nc1nc(OCc2cc(Cl)c(Cl)s2)c2nc[nH]c2n1 [B.4318, O^6-(4,5-dichlorothenyl)guanine]
- IC50 (recombinant human ATase; [6]): 15 nM

Compound: Nc1nc(OCc2csc(Br)c2)c2nc[nH]c2n1 [B.4313, O^6-(5-bromo-3-thienylmethyl)guanine]
- IC50 (recombinant human ATase; [6]): 6.5 nM

Compound: COc1ccccc1COc1nc(N)nc2[nH]cnc12 [B.4231, O^6-(2-methoxybenzyl)guanine, reference compound]
- IC50 (recombinant human ATase; Table 4, 1 hour incubation with inactivator at 37° C., read-out: I50): 60000 nM

Compound: Nc1nc(OCc2ccc3c(c2)OCO3)c2nc[nH]c2n1 [B.4212, 0^6 -piperonylguanine]
- ATase inactivation in vitro, result in words (recombinant human ATase): considerably better; also recorded: I50 values lower than that of BeG

Compound: N#Cc1ccc(COc2nc(N)nc3[nH]cnc23)s1 [B.4283, O^6-(5-cyanothenyl)guanine]
- IC50 (recombinant human ATase; [6]): 5 nM

Compound: C[S+]([O-])c1ccc(COc2nc(N)nc3[nH]cnc23)s1 (stereo not drawn) [B.4294, O^6-(5-methylsulphinylthenyl)guanine]
- IC50 (recombinant human ATase; [6]): 30 nM

Compound: Nc1nc(OCc2ccsc2)c2nc[nH]c2n1 [B.4206, 0^6-(3-thienylmethyl)guanine]
- ATase inactivation in vitro, result in words (recombinant human ATase): somewhat more effective than BeG; also recorded: I50 values lower than that of BeG

Compound: Nc1nc(OCc2cncs2)c2nc[nH]c2n1 [B.4275, 0^6-(5-thiazolylmethyl)guanine]
- ATase inactivation in vitro, result in words (recombinant human ATase): I50 values lower than that of BeG

Compound: Nc1nc(OCc2ccc(Br)o2)c2nc[nH]c2n1 [B.4336, O^6-(5-bromofurfuryl)guanine]
- IC50 (recombinant human ATase; [6]): 20 nM

Compound: Nc1nc(OCc2cc3ccccc3o2)c2nc[nH]c2n1 [B.4266, 0^6-(2-benzofuranylmethyl)guanine]
- ATase inactivation in vitro, result in words (recombinant human ATase): I50 values lower than that of BeG

Compound: N#Cc1ccc(COc2nc(N)nc3[nH]cnc23)o1 [B.4273, 0^6-(5-cyanofurfuryl)guanine]
- ATase inactivation in vitro, result in words (recombinant human ATase): I50 values lower than that of BeG

Compound: N#Cc1csc(COc2nc(N)nc3[nH]cnc23)c1 [B.4317, O^6-(4-cyanothenyl)guanine]
- IC50 (recombinant human ATase; [6]): 2.8 nM
- ATase inactivation in vitro, result in words (recombinant human ATase): more efficient inactivator in vitro than its 5-cyano analogue B.4283 or the unsubstituted thenyl derivative B.4205

Compound: Nc1nc(OCc2cc(Cl)cs2)c2nc[nH]c2n1 [B.4298, O^6-(4-chlorothenyl)guanine]
- IC50 (recombinant human ATase; [6]): 8 nM

Compound: Nc1nc(OCc2ccc(Cl)s2)c2nc[nH]c2n1 [B.4281, O^6-(5-chlorothenyl)guanine]
- IC50 (recombinant human ATase; [6]): 4 nM

Compound: COc1csc(COc2nc(N)nc3[nH]cnc23)c1 [B.4300, O^6-(4-methoxythenyl)guanine]
- IC50 (recombinant human ATase; [6]): 16.5 nM

Compound: CC(Oc1nc(N)nc2[nH]cnc12)c1ccccc1 (racemic) [B.4214, DL-0^6 -(α-methylbenzyl)guanine, reference compound]
- ATase inactivation in vitro, result in words (recombinant human ATase): reduce greatly the inactivating activity; also recorded: did not inactivate ATase up to the highest concentration used

Compound: Nc1nc(OCc2ccnc(Cl)c2)c2nc[nH]c2n1 [B.4321, O^6-(2-chloro-4-picolyl)guanine]
- IC50 (recombinant human ATase; [6]): 40 nM

Compound: Nc1nc(OCc2cc3ccccc3s2)c2nc[nH]c2n1 [B.4226, 0^6-(2-benzo[b]thienylmethyl)guanine]
- ATase inactivation in vitro, result in words (recombinant human ATase): I50 values lower than that of BeG

Compound: CC(Oc1nc(N)nc2[nH]cnc12)c1cccs1 (racemic) [B.4217, DL-0^6 -(α-methylthenyl)guanine]
- ATase inactivation in vitro, result in words (recombinant human ATase): reduce greatly the inactivating activity; also recorded: did not inactivate ATase up to the highest concentration used

Compound: Nc1nc(OCc2ccccc2)c2nc[nH]c2n1 [O^6 -benzylguanine, reference compound]
- sensitization of GM-CFC to cytotoxic effects of temozolomide, in words ([1]; four different patient samples, 10 μM (FIG. 23)): sensitized
- sensitization of GM-CFCs to toxic effects of temozolomide, in words ([1]; three human bone marrow samples (FIG. 14)): sensitised
- dose response of Raji sensitization to temozolomide, in words (Raji cells [2]): clear dose response
- survival at 336 h ([3]; inactivator 60 mg/kg + 10 mg/kg BCNU): 50%
- survival at 336 h ([3]; inactivator 60 mg/kg + 15 mg/kg BCNU (footnote *)): 0%
- survival at 336 h ([3]; inactivator 60 mg/kg + 20 mg/kg BCNU): 33%
- death of treated animals (nude mice): up to 70%
- sensitizing Raji cells to growth inhibitory effects of BCNU, in words (Raji cells [4]): equally effective
- inactivation of ATase in human melanoma xenografts, in words [5]: inactivated

Compound: Nc1nc(OCc2ccc(Br)s2)c2nc[nH]c2n1 [B.4269, 0^6-(5-bromothenyl)guanine]
- ATase inactivation in vitro, result in words (recombinant human ATase): more efficient than the unsubstituted thenyl derivative B.4205; also recorded: I50 values lower than that of BeG
